Values quoted from earlier work as cited in patent publication US7097855B1, “Transdermal thermal polymerization” (Massachusetts Institute of Technology, priority 2000, dated 2006).

Assays:
[1] = at 20° C.

Structure (SMILES): CC(C)(N=NC(C)(C)C1=NCCN1)C1=NCCN1.Cl.Cl [AZODIA HCl, 2,2′-azobis-(N,N′-dimethyleneisobutyramidine) dihydrochloride]
- water solubility [1]: 35.2 g/100 g solvent
- LD50 (oral, rat), female (rat; female): 2800 mg/kg
- LD50 (oral, rat), male (rat; male): 3200 mg/kg
